The text below walks through data of patent US11524046B2, “Biofilm prevention, disruption and treatment with bacteriophage lysin” (priority 2012, dated 2022).

The subject of one assay is S. aureus strains. The experiment in a line: PlySs2 and antibiotic MIC, broth microdilution, 80% growth inhibition (CLSI M07-A9). In kind it is cell-based. Particulars: for MIC90: Staphylococcus aureus.
The next assay has as its system biofilms of BAA-42 MRSA. Description: Biofilm eradication in 24-well plates, crystal violet staining. It is filed as cell-based, S. aureus. The conditions noted are these: for change in biofilm, visually: 1000 ug/ml (1000×MIC), 4 hours or 6 hours; for biofilm clearance: 1000×MIC, 24 hours.
The subject of assay [1] is MRSA biofilms grown on catheters (strain ATCC BAA-42). The experiment in a line: Catheter biofilm eradication in vitro, methylene blue staining. Particulars: 1000×MIC, 24 hours.
Assay [2] has the same test system. Description: Catheter biofilm residual CFU, BacTiter-Glo luciferase estimate.
For another assay, the system named is S. aureus biofilms. The conditions noted are these: cited from earlier work; for effect on the established S. aureus biofilms: high concentrations: oxacillin 400, vancomycin 800, clindamycin 800 (printed ag/ml, tag/ml), 24 h.
The test system of assay [3] is methicillin resistant S. aureus MRSA strain ATCC BAA-42. Description: MIC by broth microdilution (CLSI M07-A9) against strain ATCC BAA-42. In kind it is cell-based. The conditions noted are these: ATCC BAA-42.
For assay [4], the system named is ATCC BAA-42 MRSA biofilms. The experiment in a line: ClyS activity on biofilm in polystyrene plates, crystal violet staining. It is filed as cell-based, S. aureus. The conditions noted are these: 24 hours.

Converted amounts (≈) assume the structure as drawn. Read-outs that look alike come from different tables or passages of the source. Marks after values point to notes of the source that are not given here. Bounds are passed on as bounds.

On to `CCCCCCCCCC(=O)N[C@@H](Cc1c[nH]c2ccccc12)C(=O)N[C@H](CC(N)=O)C(=O)N[C@@H](CC(=O)O)C(=O)N[C@@H]1C(=O)NCC(=O)N[C@@H](CCCN)C(=O)N[C@@H](CC(=O)O)C(=O)N[C@H](C)C(=O)N[C@@H](CC(=O)O)C(=O)NCC(=O)N[C@H](CO)C(=O)N[C@@H]([C@H](C)CC(=O)O)C(=O)N[C@@H](CC(=O)c2ccccc2N)C(=O)O[C@@H]1C` [Daptomycin, daptomycin], for which the MIC90 with S. aureus strains (DRSA (n = 8), read-out: MIC90) was 9.9 µM (≈ 16 µg/mL); in the assay with S. aureus strains (LRSA (n = 5), read-out: MIC90) it was 0.6 µM (≈ 0.972 µg/mL); in the assay with S. aureus strains (MRSA, MRSA (n = 45), read-out: MIC90) it was 0.6 µM (≈ 0.972 µg/mL); in the assay with S. aureus strains (MSSA, MSSA (n-28), read-out: MIC90), 0.6 µM (≈ 0.972 µg/mL); with S. aureus strains (VISA, VISA (n = 10), read-out: MIC90), 4.9 µM (≈ 7.94 µg/mL); in the assay with S. aureus strains (VRSA, VRSA (n = 14), read-out: MIC90), 0.6 µM (≈ 0.972 µg/mL). The “change in biofilm, visually” value in the assay with biofilms of BAA-42 MRSA is “No change”. Also, the biofilm clearance entry in the assay with biofilms of BAA-42 MRSA is “no biofilm clearance”. The biofilm dissolution entry in the assay with biofilms of BAA-42 MRSA (concentrations up to 10×MIC, up to 24 hours) is reported as “no dissolution”. In addition, the “biofilm clearance from the catheter” value in assay [1] is listed as “did not remove significant biofilm”. Moreover, the CFU reduction result in assay [2] (1×MIC, 24 hours) was “no CFU reduction”; in assay [2] (1000×MIC, 24 hours), “two log reduction”. For the same molecule, the “CFUs remaining in catheter biofilm” value in assay [2] (1000× MIC, 24 hours, from 100 million) is 1 million. Also, the “removal of biofilm bacteria” value in assay [2] (up to concentrations of 5000×MIC) was “completely ineffective”.

For `CC(=O)NC[C@H]1CN(c2ccc(N3CCOCC3)c(F)c2)C(=O)O1` [Linezolid, linezolid], the MIC50/90 with S. aureus strains (DRSA (n = 8)) is recorded as 2; against S. aureus strains (LRSA (n = 5)) it was greater than 64; against S. aureus strains (MRSA (n = 45)), 2; against S. aureus strains (MSSA (n-28)), 2; against S. aureus strains (VISA (n = 10)) it was 2; against S. aureus strains (VRSA (n = 14)), 2. The “MIC50/90 [uM]” value with S. aureus strains (DRSA (n = 8)) was 5.7 µM (≈ 1.92 µg/mL); in the assay on S. aureus strains (LRSA (n = 5)), greater than 183 µM; against S. aureus strains (MRSA (n = 45)), 5.7 µM (≈ 1.92 µg/mL); in the assay on S. aureus strains (MSSA (n-28)) it was 5.7 µM (≈ 1.92 µg/mL); in the assay on S. aureus strains (VISA (n = 10)) it was 5.7 µM (≈ 1.92 µg/mL); with S. aureus strains (VRSA (n = 14)) it was 5.7 µM (≈ 1.92 µg/mL). Besides, in the assay on biofilms of BAA-42 MRSA, the “change in biofilm, visually” value was “No change”. Also, the biofilm clearance entry with biofilms of BAA-42 MRSA was “no biofilm clearance”.

On to `Cc1onc(-c2ccccc2)c1C(=O)N[C@@H]1C(=O)N2[C@@H]1SC(C)(C)[C@@H]2C(=O)O` [Oxacillin, oxacillin], for which, in the assay with S. aureus strains (MRSA (n = 45)), the MIC50/90 is recorded as >4* and the “MIC50/90 [uM]” value was greater than 10.0 µM. In addition, the “effect on the established S. aureus biofilms” value in the assay on S. aureus biofilms was “no effect”.

As to `CN[C@H](CC(C)C)C(=O)N[C@H]1C(=O)N[C@@H](CC(N)=O)C(=O)N[C@H]2C(=O)N[C@H]3C(=O)N[C@H](C(=O)N[C@H](C(=O)O)c4cc(O)cc(O)c4-c4cc3ccc4O)[C@H](O)c3ccc(c(Cl)c3)Oc3cc2cc(c3O[C@@H]2O[C@H](CO)[C@@H](O)[C@H](O)[C@H]2O[C@H]2C[C@](C)(N)[C@H](O)[C@H](C)O2)Oc2ccc(cc2Cl)[C@H]1O` [Vancomycin, vancomycin], the MIC90 against S. aureus strains is 0.7 µM (≈ 1.01 µg/mL); against S. aureus strains (MRSA), 0.7 µM (≈ 1.01 µg/mL); with S. aureus strains (MSSA), 0.7 µM (≈ 1.01 µg/mL); in the assay on S. aureus strains (VISA), 2.7 µM (≈ 3.91 µg/mL); against S. aureus strains (VRSA), greater than 10.6 µM. Also, the “change in biofilm, visually” value in the assay on biofilms of BAA-42 MRSA is listed as “No change”. The biofilm clearance result in the assay with biofilms of BAA-42 MRSA is recorded as “no biofilm clearance”. For the same molecule, the “effect on the established S. aureus biofilms” value in the assay with S. aureus biofilms is listed as “no effect”.

In the case of “Lysostaphin: gene product of Staphylococcus simulans degrading the polyglycine crosslinks of the S. aureus cell wall”, in the assay with S. aureus biofilms (lysostaphin-sensitive S. aureus), the “effect on S. aureus biofilms in vitro on plastic and glass surfaces” value is given as “disrupted the extracellular matrix”.

B1: ClyS: chimeric lysin with activity against Staphylococci, detailed in WO 2010/002959; SEQ ID NO: 5 (protein, listed as Staphylococcus aureus)
chain: METLKQAESYIKSKVNTGTDFDGLYGYQCMDLAVDYIYHVTDGKIRMWGNAKDAINNSFGGTATVYKNYPAFRPKYGDVVVWTTGNFATYGHIAIVTNPDPYGDLQYVTVLEQNWNGNGIYKTELATIRTHDYTGITHFIRPNFATESSVKKKDTKKKPKPSNRDGLNKDKIVYDRTNINYNMVLQGKSASKITVGSKAPYNLKWSKGAYFNAKIDGLGATSATRYGDNRTNYRFDVGQAVYAPGTLIYVFEIIDGWCRIYWNNHNEWIWHERLIVKEVF
On to B1, for which, in assay [3], the “MIC of the ClyS lysin” value worked out at 32 µg/mL. The biofilm dispersal entry is “somewhat” in assay [4] (0.032 μg/ml), “Reduction in stained biofilm” in assay [4] (0.32 μg/ml), “effectively disperses” in assay [4] (3.2 μg/ml (0.1× MIC)) and “effectively disperses” in assay [4] (32 μg/ml (1×MIC)).
